Test systems include ACHN renal; K-562 leukemia; MDA-MB-435; NCI-H23 lung; OVCAR-3 ovarian; SK-OV-3 ovarian; SNB-75 CNS; SR leukemia; TK-10 renal; UO-31 renal.
Holding throughout (assay): NCI tumour cell line growth inhibition, 48 h

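Exposure lasted 48 hours, with cells grown in 96-well plates and compounds tested at five concentrations. GI50 is the concentration that inhibits growth by half. TGI: concentration producing complete growth inhibition.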 A value given as a limit tells only on which side of the number the result lay.

Turning to `CCN1C(=O)CNc2ncc(-c3ccc(-c4ncn[nH]4)nc3C)nc21`, the GI50 with ACHN renal is 140 nM; in the assay on K-562 leukemia, 358 nM; in the assay on MDA-MB-435, 162 nM; in the assay on NCI-H23 lung it was 238 nM; in the assay on OVCAR-3 ovarian, 189 nM; with SK-OV-3 ovarian, 102 nM. Further, the GI50 in the assay on SNB-75 CNS was 36.9 nM; with SR leukemia, 253 nM; in the assay on TK-10 renal, 83.3 nM; in the assay with UO-31 renal it was 24.8 nM. Further, the TGI with ACHN renal was 2160 nM; with K-562 leukemia, > 100000 nM; in the assay with MDA-MB-435, 1630 nM; with NCI-H23 lung, 8270 nM; with OVCAR-3 ovarian, 4490 nM; in the assay on SK-OV-3 ovarian, 617 nM. For the same molecule, the TGI in the assay on SNB-75 CNS worked out at 321 nM; in the assay with SR leukemia it was 4090 nM; in the assay on TK-10 renal, 1360 nM; in the assay on UO-31 renal, 599 nM.

For the molecule `CC/C=C\C[C@@H]1C/C=C2/C(=O)C=C[C@H]2C/C=C\CCCC(=O)O1`, the GI50 in the assay with ACHN renal is 183 nM; in the assay on K-562 leukemia it was 239 nM; with MDA-MB-435 it was 250 nM; in the assay on NCI-H23 lung it was 993 nM; in the assay with OVCAR-3 ovarian, 428 nM; in the assay with SK-OV-3 ovarian, 2490 nM. Also, the GI50 with SNB-75 CNS is 1180 nM; in the assay on SR leukemia, 170 nM; in the assay on TK-10 renal it was 1480 nM; in the assay with UO-31 renal, 929 nM. In addition, the TGI in the assay with ACHN renal was 372 nM; in the assay with K-562 leukemia, 724 nM; in the assay on MDA-MB-435, 845 nM; in the assay with NCI-H23 lung it was 3200 nM; in the assay with OVCAR-3 ovarian, 1380 nM; with SK-OV-3 ovarian, 7940 nM. Also, the TGI in the assay with SNB-75 CNS stood at 2600 nM; in the assay on SR leukemia it was 731 nM; with TK-10 renal, 3140 nM; with UO-31 renal, 2230 nM.

For the molecule `CCOC(=O)Sc1ncnc2nc[nH]c12`, the GI50 in the assay with ACHN renal is 4650 nM; with K-562 leukemia, 312 nM; in the assay on MDA-MB-435 it was 1470 nM; in the assay with NCI-H23 lung it was 3930 nM; with OVCAR-3 ovarian, 474 nM; with SK-OV-3 ovarian, 484 nM. The GI50 was 747 nM with SNB-75 CNS, 358 nM with SR leukemia, 547 nM in the assay with TK-10 renal and 4140 nM in the assay with UO-31 renal. The TGI in the assay with ACHN renal, with K-562 leukemia, in the assay with MDA-MB-435, in the assay on NCI-H23 lung, with OVCAR-3 ovarian and in the assay with SK-OV-3 ovarian was > 100000 nM throughout. Besides, the TGI is > 100000 nM with SNB-75 CNS, 6350 nM with SR leukemia, > 100000 nM in the assay with TK-10 renal and > 100000 nM with UO-31 renal.

Consider `O=C(N/N=C/c1cccc(O)c1O)c1ccccc1`, for which the GI50 in the assay on ACHN renal is 477 nM; with K-562 leukemia, 1290 nM; with MDA-MB-435, 1880 nM; in the assay on NCI-H23 lung, 992 nM; in the assay with OVCAR-3 ovarian, 369 nM; with SK-OV-3 ovarian it was 3680 nM. In addition, the GI50 in the assay on SNB-75 CNS is 4660 nM; in the assay with SR leukemia it was 412 nM; in the assay on TK-10 renal it was 2570 nM; in the assay on UO-31 renal, 434 nM. The TGI in the assay with ACHN renal, with K-562 leukemia, in the assay with MDA-MB-435, in the assay with NCI-H23 lung, in the assay on OVCAR-3 ovarian and in the assay on SK-OV-3 ovarian was > 100000 nM throughout. Moreover, the TGI with SNB-75 CNS is 85600 nM; with SR leukemia, > 76000 nM; in the assay with TK-10 renal, > 69100 nM; in the assay on UO-31 renal it was 14000 nM.

For the molecule `CCN(CC)c1ccc(C(=N)c2ccc(N(CC)CC)cc2)cc1`, the GI50 in the assay on ACHN renal was 784 nM; with K-562 leukemia it was 255 nM; in the assay with MDA-MB-435 it was 318 nM; in the assay with NCI-H23 lung, 260 nM; in the assay with OVCAR-3 ovarian, 270 nM; in the assay on SK-OV-3 ovarian, 854 nM. In addition, the GI50 with SNB-75 CNS was 849 nM; with SR leukemia it was 280 nM; in the assay on TK-10 renal it was 896 nM; in the assay on UO-31 renal, 557 nM. Besides, the TGI worked out at 6430 nM in the assay on ACHN renal; 1670 nM in the assay on K-562 leukemia; 1300 nM with MDA-MB-435; 925 nM in the assay with NCI-H23 lung; 995 nM in the assay on OVCAR-3 ovarian; 2890 nM in the assay on SK-OV-3 ovarian. The TGI with SNB-75 CNS came to 6890 nM; in the assay on SR leukemia it was 1200 nM; in the assay on TK-10 renal, 4290 nM; in the assay with UO-31 renal it was 2640 nM.

With `COc1ccc(OC)c(/C=C/C(=O)N/N=C/c2ccc(Cl)cc2)c1`, the GI50 with ACHN renal is 1610 nM; in the assay on K-562 leukemia, 42 nM; in the assay with MDA-MB-435 it was 26.3 nM; with NCI-H23 lung, 105 nM; in the assay with OVCAR-3 ovarian it was 28.5 nM; with SK-OV-3 ovarian it was 92.8 nM. Besides, the GI50 is 53.7 nM in the assay on SNB-75 CNS, 38.9 nM in the assay on SR leukemia, 383 nM in the assay on TK-10 renal and 3370 nM with UO-31 renal. The TGI is > 100000 nM in the assay with ACHN renal; > 100000 nM in the assay with K-562 leukemia; 106 nM with MDA-MB-435; 87.5 nM with OVCAR-3 ovarian; 9810 nM in the assay on SK-OV-3 ovarian; 674 nM in the assay on SNB-75 CNS. The TGI is 16400 nM with SR leukemia, > 100000 nM in the assay with TK-10 renal and > 100000 nM with UO-31 renal.

Take `O=C(c1cccc(O)c1O)c1cn(Cc2ccc(F)cc2)c2cccc(O)c12`: the GI50 in the assay on ACHN renal was 3200 nM; with K-562 leukemia it was 3560 nM; in the assay with MDA-MB-435 it was 5230 nM; in the assay with NCI-H23 lung it was 4120 nM; in the assay on OVCAR-3 ovarian, 3270 nM; in the assay with SK-OV-3 ovarian, 4490 nM. Further, the GI50 in the assay with SNB-75 CNS was 2490 nM; in the assay on SR leukemia, 867 nM; in the assay on TK-10 renal, 7010 nM; with UO-31 renal it was 1140 nM. Further, the TGI in the assay on ACHN renal was 14900 nM; with K-562 leukemia, > 37700 nM; in the assay with MDA-MB-435, 36300 nM; in the assay on NCI-H23 lung, 19800 nM; in the assay on OVCAR-3 ovarian it was 18100 nM; in the assay on SK-OV-3 ovarian it was 16000 nM. For the same molecule, the TGI with SNB-75 CNS turned out to be 12000 nM; in the assay with SR leukemia, 7810 nM; with TK-10 renal, 26800 nM; with UO-31 renal, 5240 nM.

These data come from PubChem BioAssay (NCI).
